According to patent US20220162552A1, “Nonviral Modification of T Cell Gene Expression” (Precision NanoSystems Inc., priority 2019, published 2022):

Assays:
Assay type in all cases: cell-based
[1] = system: primary human T cells (live CD4+/CD8+ T cells); test: eGFP mRNA LNP transfection of activated T cells on day 7, 2 μg mRNA per 500,000 cells, flow cytometry after 48 h; conditions: for MFI results by ionizable lipid: MC3 versus BOCHD-C3-DMA; for activity of the lipid mix composition to transfect T cells by ionizable lipid (FIG. 10 upper): same ratios and materials, ionizable lipid varied
Description: All reagents from StemCell Technologies unless otherwise stated. T cells were isolated from whole human peripheral blood using a negative selection isolation procedure (EasySep™ Human T Cell Isolation Kit). T cell activation and expansion was carried out using Immunocult™ Human CD3/CD28/CD2 Activator in ImmunoCult™ Human T Cell Expansion Media supplemented with recombinant human IL-2 (Peprotech Inc., Rocky Hill USA). T cells typically enter a logarithmic phase of growth 48-96 hours after activation, which phase is characterized by a period of rapid proliferation and metabolic activity for 24-72 hours followed by a plateau in the growth curve as the cells start to return to a quiescent state. As depicted in FIG. 1, T cells may be exposed to lipid nucleic acid before or during the log phase of growth (day 3), or after the log phase of growth (day 7).
We tested the compositions of new Lipid Mixes against standard Lipid Mix A (all with BOCHD-C3-DMA as IL unless otherwise stated) using the triple T cell activation protocol (Pan T cells were activated with trio activator comprising anti-CD3/CD28/CD2 antibody) in LNP-mediated mRNA delivery and expression in vitro.
LNP formulated EGFP mRNA (Trilink Biotechnologies, San Diego, Calif.) was added to 500,000 T cells in 1 mL of complete T cell media, with 1 μg/mL of Recombinant Human ApoE4 (“ApoE”) (Peprotech Inc.).
The volume of LNAP required to achieve the desired dose of mRNA was calculated based on the concentration of encapsulated mRNA as determined by modified Ribogreen™ assay. T cells were counted through Trypan blue (Sigma) exclusion and diluted to 500,000 cells/mL. Briefly, in a 12 well plate, 1 mL was aliquoted into each well. ApoE was added to a final concentration of 1 ug/mL in each well. Based upon the calculation in step 1, the required amount of mRNA LNP was added, in this case 2 μg, and the plate incubated for 48 hours.
Different lipid mix compositions were tested for their ability to induce transfection as measured by geometric mean fluorescence intensity of GFP expressed in T cells (as measured by flow cytometry).
Three isolations of T cells were taken from a single donor and divided into three groups: Pan T cells (all T cells), CD4+ T cells alone, and CD8+ T cells alone. At 48H following lipid particle mRNA exposure, the treated T cells were harvested by transferring the cell suspensions to pre-labeled 1.5 mL tubes and centrifuged 300×g at 4 degrees Celsius for 10 minutes. Supernatant was removed and the pellet resuspended in PBS. An amount of 0.5 ul of BD Horizon™ Fixable Viability Stain 575V™ (BD Biosciences) was added, and the mixture incubated in the dark for 10 minutes at RT. The cells were centrifuged again as before, then washed twice with 1 mL of Stain buffer (BSA, BD Pharminigen), and the washed pellet placed in 100 μl BSA. The following antibodies were added to each tube of treated cells in 2 μl volumes: anit-CD25, anti-CD8, anti-CD4, (PerCP-Cy 5.5 Mouse Anti Human CD25, BV786 Mouse Anti-Human CD8 Clone RPA-T8, and APC-Cy™ 7 Mouse Anti-Human CD4 Clone SK3, all from BD Pharmingen). For compensation purposes, in the GFP only sample and viability control, no antibody was added, while in the single stain compensation tubes, only one antibody was added.
The tubes were incubated at 4 degrees C. for 30 min, whereupon […] of stain buffer (BSA) was added, and the cells were centrifuged again. Cells were washed once with 1 mL of stain buffer and spun down again as in step 1. Cell pellets were resuspended in 1 mL of stain buffer and added to pre-labeled flow tubes with cell strainer caps (Corning Falcon).
Histogram Analysis of T Cell Populations was generated as follows: Flow cytometry was performed on the live primary human T cells. […] All LNP compositions contained BOCHD-C3-DMA as ionizable lipid (IL). […]

[2] = system: isolated primary human T cells; test: eGFP mRNA LNP transfection of T cells, 125,000 cells per well format (day 3/4/7), flow cytometry; conditions: CT10 composition, six donors, day 7
Description: Isolation of primary T cells from human whole blood and activation/expansion was performed as in general procedures above. Isolated T cells were exposed to the formulated mRNA three days after activation; in the T cell growth curve, this time point corresponds to just before or at the log phase of growth. A dose of 125 ng of CleanCap™ EGFP (Trilink Biotechnologies, San Diego, Calif.) mRNA encapsulated in LNP (see details below) was added to about 125,000 T cells in 0.25 mL of complete T cell media, with 1 ug/mL of Recombinant Human ApoE4 (“ApoE”) (Peprotech Inc., Montreal, Canada).
The volume of LNP required for T cell treatment was calculated based upon Ribogreen™ assay results. T cells were counted through Trypan blue (Sigma) exclusion and diluted to 500,000 cells/mL. […]
Lipid mix compositions were tested for their ability to induce transfection, using flow cytometry to measure the geometric mean fluorescence intensity of eGFP. Shown in FIG. 11 A(i) to D(ii) are the transfection efficiencies (i) and mean fluorescence intensities (ii) of mRNA LNPs encoding eGFP in isolated primary human T cells under various conditions. […]
GFP expression in isolated primary human T cells mediated by mRNA-LNPs containing BOCHD-C3-DMA with CT10 composition at N/P 8 is shown in FIG. 16. Transfection efficiency, viability and GFP MFI measured by flow cytometry 48 hours after LNP addition. […]

primary human T cells = test: EPO mRNA LNP delivery to T cells, Human Epo ELISA; conditions: CT10 LNPs, 48 h
Description: Reagents were acquired from Quantikine, Minneapolis, Minn. The assay was performed as directed on the Quantikine® IVD® ELISA Human Erythropoietin Immunoassay protocol REF DEP00 Package Insert. Briefly; primary human T cells were isolated from fresh whole blood using a negative selection protocol and activated using a triple activator. At 7 days post-activation, the cells were treated with mRNA LNPs encoding EPO at 2 μg mRNA per 500,000 cells and N/P 10. After 48 hours of treatment with mRNA LNPs, the T cells were harvested and lysed for cytosolic EPO and media supernatant was sampled for secreted EPO. Quantikine® Human Serum Controls were used.
Frozen human T cells, previously isolated from fresh human whole blood using a negative selection protocol, were thawed and activated using a triple activator as previously described. At seven days post-activation, T cells were dosed with CT10 formulated mRNA LNPs encoding recombinant human erythropoietin (EPO) determined by ELISA (R&D Systems) at 2 μg mRNA per 500,000 cells and N/P 10. After 48 hours of treatment with mRNA LNPs the T cells were harvested and lysed for cytosolic EPO and media supernatant was sampled for secreted EPO.

Row | Structure (SMILES) | MFI results by ionizable lipid [1] | activity of the lipid mix composition to transfect T cells by ionizable lipid (FIG. 10 upper) [1] | donor to donor variability by ionizable lipid (FIG. 15) [2] | level of secreted EPO by ionizable lipid (primary human T cells) | T cell transfection by structural lipid (FIG. 8) ([1]; Lipid Mix CT22 ratios, structural lipid DOPE or DSPC, N/P 10)
1 | CCCCCCCCC1CC1CCCCCCCCC(CCCCCCCCC1CC1CCCCCCCC)OC(=O)CCCN(C)C.Cl (stereo not drawn) [BOCHD-C3-DMA, 1,17-bis(2-octylcyclopropyl)heptadecan-9-yl 4-(dimethylamino) butanoate hydrochloride] | comparable | without affecting the activity of the lipid mix composition to transfect T cells | no substantial difference | higher level of secreted EPO than MC3 LNPs | 
2 | CCCCCC=CCC=CCCCCCCCCC(CCCCCCCCC=CCC=CCCCCC)OC(=O)CCCN(C)C (stereo not drawn) [MC3, heptatriaconta-6,9,28,31-tetraen-19-yl 4-(dimethylamino)butanoate, reference compound] | comparable | without affecting the activity of the lipid mix composition to transfect T cells | no substantial difference |  | 
3 | CCCCC/C=C\C/C=C\CCCCCCCCC1(CCCCCCCC/C=C\C/C=C\CCCCC)OCC(CCN(C)C)O1 (stereo not drawn) [KC2, 2,2-dilinoleyl-4-(2-dimethylaminoethyl)-[1,3]-dioxolane, reference compound] |  | without affecting the activity of the lipid mix composition to transfect T cells |  |  | 
4 | CCCCCCCCCCCCCCCCCC(=O)OC[C@H](COP(=O)([O-])OCC[N+](C)(C)C)OC(=O)CCCCCCCCCCCCCCCCC [DSPC, distearoylphosphatidylcholine] |  |  |  |  | better than DOPE
